Patent EP0335369A2, “New anthracycline derivatives and processes for the preparation of the same” (priority 1988, dated 1989)
≈ marks a conversion by molar mass, not a printed value. Like-named read-outs stand apart in the source and are kept apart here.

Assays:
[1] = Solubility in phosphate buffer solution of pH 7.4 at room temperature; assay type: physicochemical; settings: for solubility: aqueous buffer, room temperature, read-out: Solubility; for solubility in the phosphate buffer solution (in words): phosphate buffer solution (0.05 M KH2PO4-NaOH) at pH 7.4
Leukemia L-1210 cells [2] = experiment: Test 1: antitumor activity against leukemia induced in CDF1 mice by Leukemia L-1210 cells (life-span increase); assay type: in vivo; settings: intraperitoneally once per day for 9 consecutive days, observation 60 days
Description: Antitumor activities against leukemia in CDF, mice as induced by mouse leukemia, Leukemia L-1210 cells
After an elapsed time of 24 hours, a compounds of the formula (I) of this invention to be tested was administered intraperitoneally for 9 consecutive days once per day. Observation was made for 60 days, where survival days of each mouse tested were recorded. In comparison with the control test wherein mice were treated with the administration of physiological saline alone, the increase (%) in the life-span of the treated mice was calculated as T/C %, where T is the mean survival days of the treated animals and C is the mean survival days of the untreated control animals. For the comparison, daunomycin and adriamycin were also tested in the same manner.

Leukemia L-1210 cells [3] = experiment: Test 3: antitumor activity against leukemia induced in CDF1 mice by Leukemia L-1210 cells (procedure of Test 1 repeated); assay type: in vivo; settings: for % Increase in life-span (T/C, %): intraperitoneally once per day for 9 consecutive days, observation 60 days
Description: Antitumor activities against leukemia in CDF1 mice as induced by mouse leukemia, Leukemia L-1210 cells
To evaluate the antitumor effects of the compounds of the formula (I') according to the sixth aspect of this invention against experimental tumors in animals, the procedure of Test 1 given hereinbefore is repeated. Thus, CDF1 mice were intraperitoneally transplanted with cells of Leukemia L-1210 (at a dose of 1 x 10^5 cells/mouse). After an elapsed time of 24 hours from the tumor transplantation, a test compound of the formula (I') of the sixth aspect invention to be evaluated was administered intraperitoneally for 9 consecutive days once per day. Observation was made for 60 day, where survival days of each mouse tested were recorded. In comparison with the control test wherein mice were treated with the administration of physiological saline alone, the increase (%) in the life-span of the treated mice was calculated as T/C %, where T is the mean survival days of the treated animals and C is the mean survival days of the untreated control animals. For the comparison, daunomycin and adriamycin were also tested in the same manner.

[4] = compounds (I'-c) or (I'-d), phosphate buffer solution of pH 7.4 (0.05M KH2PO4-NaOH)

Row | Compound | solubility ([1]; compounds (Ic), phosphate buffer solution of pH 7.4 (0.05 M KH2PO4-NaOH)) | % Increase in life-span (T/C, %) (Leukemia L-1210 cells [2]; Dose 0.15 mg/kg/day) | % Increase in life-span (T/C, %) (Leukemia L-1210 cells [2]; Dose 0.3 mg/kg/day) | % Increase in life-span (T/C, %) (Leukemia L-1210 cells [2]; Dose 0.6 mg/kg/day) | % Increase in life-span (T/C, %) (Leukemia L-1210 cells [2]; Dose 1.25 mg/kg/day) | % Increase in life-span (T/C, %) (Leukemia L-1210 cells [2]; Dose 2.5 mg/kg/day) | % Increase in life-span (T/C, %) (Leukemia L-1210 cells [2]; Dose 5 mg/kg/day) | % Increase in life-span (T/C, %) (Leukemia L-1210 cells [3]; Dose 0.15 mg/kg/day) | % Increase in life-span (T/C, %) (Leukemia L-1210 cells [3]; Dose 0.3 mg/kg/day) | % Increase in life-span (T/C, %) (Leukemia L-1210 cells [3]; Dose 0.6 mg/kg/day) | % Increase in life-span (T/C, %) (Leukemia L-1210 cells [3]; Dose 1.25 mg/kg/day) | % Increase in life-span (T/C, %) (Leukemia L-1210 cells [3]; Dose 2.5 mg/kg/day) | % Increase in life-span (T/C, %) (Leukemia L-1210 cells [3]; Dose 5 mg/kg/day) | solubility [1, 4] | solubility in the phosphate buffer solution (in words) [1] | complete cure of the leukemia in the mice (Leukemia L-1210 cells [3]; intraperitoneally, 0.15 mg/kg/day)
1 | COc1cccc2c1C(=O)c1c(O)c3c(c(O)c1C2=O)C[C@@](O)(C(=O)COC(=O)CCCCCCC(=O)O)C[C@@H]3O[C@@H]1O[C@@H](C)[C@H](O)[C@@H](O)[C@H]1F [Example 10, 7-O-(2,6-dideoxy-2-fluoro-α-L-mannopyranosyl)adriamycinone 14-0-hemisuberate] | 30000 µg/mL (≈ 41.7 mM) | – | – | – | – | – | – | – | – | – | – | – | – | – | – | –
2 | COc1cccc2c1C(=O)c1c(O)c3c(c(O)c1C2=O)C[C@@](O)(C(C)=O)C[C@@H]3O[C@H]1C[C@H](N)[C@H](O)[C@H](C)O1 [Daunomycin, reference compound] | – | 130% | 133% | 166% | 193% | 151% | 117% | 130% | 133% | 166% | 193% | 151% | 117% | – | – | –
3 | COc1cccc2c1C(=O)c1c(O)c3c(c(O)c1C2=O)C[C@@](O)(C(C)=O)C[C@@H]3O[C@@H]1O[C@@H](C)[C@H](O)[C@@H](O)[C@H]1F [Example 1, 7-0-(2,6-dideoxy-2-fluoro-a-L-mannopyranosyl)daunomycinone] | – | 109% | 123% | 189% | >309% | 280% | 160% | – | – | – | – | – | – | – | – | –
4 | C[C@@H]1O[C@@H](O[C@H]2C[C@](O)(C(=O)COC(=O)CCCC(=O)O)Cc3c(O)c4c(c(O)c32)C(=O)c2ccccc2C4=O)[C@H](F)[C@H](O)[C@@H]1O [Example 16, 4-demethoxy-7-O-(2,6-dideoxy-2-fluoro-α-L-talopyranosyl)adriamycinone 14-0-hemiglutarate] | – | – | – | – | – | – | – | – | – | – | – | – | – | 10000 µg/mL (≈ 15.5 mM) | soluble | –
5 | C[C@@H]1O[C@@H](O[C@H]2C[C@](O)(C(=O)COC(=O)CCCCCC(=O)O)Cc3c(O)c4c(c(O)c32)C(=O)c2ccccc2C4=O)[C@H](F)[C@H](O)[C@@H]1O [Example 18, 4-demethoxy-7-O-(2,6-dideoxy-2-fluoro-a-L-talopyranosyl)adriamycinone 14-0-hemipimelate] | – | – | – | – | – | – | – | – | – | – | – | – | – | < 1000 µg/mL | scarcely soluble | –
6 | C[C@@H]1O[C@@H](O[C@H]2C[C@](O)(C(=O)CO)Cc3c(O)c4c(c(O)c32)C(=O)c2ccccc2C4=O)[C@H](F)[C@H](O)[C@H]1O [Example 4, 7-O-(2,6-dideoxy-2-fluoro-a-L-mannopyranosyl)-4-demethoxyadriamycinone] | – | >534% | >686% | >686% | 141% | 53% | 22% | – | – | – | – | – | – | – | – | –
7 | COc1cccc2c1C(=O)c1c(O)c3c(c(O)c1C2=O)C[C@@](O)(C(=O)CO)C[C@@H]3O[C@@H]1O[C@@H](C)[C@H](O)[C@@H](O)[C@H]1F [Example 3, 7-O-(2,6-dideoxy-2-fluoro-a-L-mannopyranosyl)adriamycinone] | – | 157% | >440% | >363% | >426% | 231% | 211% | – | – | – | – | – | – | – | – | –
8 | COc1cccc2c1C(=O)c1c(O)c3c(c(O)c1C2=O)C[C@@](O)(C(C)=O)C[C@@H]3O[C@@H]1O[C@@H](C)[C@@H](O)[C@@H](O)[C@H]1F [7-0-(2,6-Dideoxy-2-fluoro-α-L-talopyranosyl) daunomycinone, reference compound] | – | 105% | 105% | 118% | 171% | 217% | 184% | 105% | 105% | 118% | 171% | 217% | 184% | – | – | –
9 | COc1cccc2c1C(=O)c1c(O)c3c(c(O)c1C2=O)C[C@@](O)(C(=O)CO)C[C@@H]3O[C@@H]1O[C@@H](C)[C@@H](O)[C@@H](O)[C@H]1F [7-0-(2,6-Dideoxy-2-fluoro-α-L-talopyranosyl) adriamycinone, reference compound] | – | 127% | 182% | 185% | 275% | >350% | >750% | 127% | 182% | 185% | 275% | >350% | >750% | – | – | –
10 | COc1cccc2c1C(=O)c1c(O)c3c(c(O)c1C2=O)C[C@@](O)(C(=O)CO)C[C@@H]3O[C@H]1C[C@H](N)[C@H](O)[C@H](C)O1 [Adriamycin, reference compound] | – | 123% | 136% | 142% | 222% | 228% | 191% | 123% | 136% | 142% | 222% | 228% | 191% | – | – | –
11 | C[C@@H]1O[C@@H](O[C@H]2C[C@](O)(C(=O)CO)Cc3c(O)c4c(c(O)c32)C(=O)c2ccccc2C4=O)[C@H](F)[C@H](O)[C@@H]1O [Example 13, 4-demethoxy-7-O-(2,6-dideoxy-2-fluoro-a-L-talopyranosyl)adriamycinone] | – | – | – | – | – | – | – | – | >348% | >427% | 96% | 80% | 77% | – | – | three mice were completely cured among the treated four mice
12 | CC(=O)[C@]1(O)Cc2c(O)c3c(c(O)c2[C@@H](O[C@@H]2O[C@@H](C)[C@H](O)[C@@H](O)[C@H]2F)C1)C(=O)c1ccccc1C3=O [Example 2, 4-demethoxy-7-O-(2,6-dideoxy-2-fluoro-α-L-mannopyranosyl)daunomycinone] | – | 113% | 163% | 309% | > 686% | 134% | 73% | – | – | – | – | – | – | – | – | –
13 | CC(=O)[C@]1(O)Cc2c(O)c3c(c(O)c2[C@@H](O[C@@H]2O[C@@H](C)[C@@H](O)[C@@H](O)[C@H]2F)C1)C(=O)c1ccccc1C3=O [Example 12, 4-demethoxy-7-O-(2,6-dideoxy-2-fluoro-α-L-talopyranosyl)daunomycinone] | – | – | – | – | – | – | – | 106% | 138% | 202% | > 436% | 101% | 80% | – | – | –
